Source: patent publication US10683269B2 (MISSION THERAPEUTICS LIMITED, priority 2016, dated 2020)
pIC50: −log10 of the molar value.

Target: T1, USP7 (Homo sapiens, UniProt Q93009)
T1 construct: The USP7 construct was PCR amplified and cloned into a pFLAG-CMV-6a vector (Sigma-Aldrich) with an N-terminal FLAG tag; made in house; host or cells: HEK293T
Assay: USP7 biochemical IC50 assay (fluorescence polarisation, TAMRA labelled peptide linked to ubiquitin via an iso-peptide bond)
Conditions: 30 min pre-incubation of enzyme and compound, read after 2 hr incubation at room temperature, read-out: IC50 range
Procedure: In Vitro USP7 Inhibition Assay
Expression and Purification of USP7
The USP7 construct was PCR amplified and cloned into a pFLAG-CMV-6a vector (Sigma-Aldrich) with an N-terminal FLAG tag. HEK293T cells were transfected with FLAG-USP7 using TransIT-LT1 transfection reagent (Mirus) according to the manufacturer's instructions. Cells were harvested 40 hours after transfection. […] The resin was washed two times with low salt buffer plus protease inhibitors (complete mini, Roche) and phosphatase inhibitors (PhosSTOP mini, Roche) and one time with high salt buffer (20 mM Tris, pH 7.5, 500 mM NaCl, 0.5 mM EDTA, 5 mM beta-mercaptoethanol, protease inhibitors (complete mini, Roche) and phosphatase inhibitors (PhosSTOP mini, Roche). To elute the bound USP7, elution buffer (10 mM Tris, pH 7.5, 150 mM NaCl, 0.5 mM EDTA, 10% glycerol, 0.5% NP40, 5 mM beta-mercaptoethanol, 0.15 mg/ml 3×FLAG peptide (Sigma-Aldrich)) was added to the resin and incubated at 4° C. for 2.5 hours rotating. The resin was centrifuged at 4000 rpm for 30 seconds, and the supernatant containing purified FLAG-USP7 was removed and stored at −80° C.
USP7 Biochemical IC50 Assay
A typical 8-point dilution series would be 100, 30, 10, 3, 1, 0.3, 0.1, 0.03 μM final. […] Either 1 μl of 50% DMSO or diluted compound was added to the plate. USP7 was diluted in reaction buffer (20 mM Tris, pH 7.5, 100 mM NaCl, 0.05% Tween 20, 0.5 mg/ml BSA, 5 mM—beta mercaptoethanol) to the equivalent of 0.0025 μl/well and 10 μl of diluted USP7 was added to the compound. Enzyme and compound were incubated for 30 min at room temp. Reactions were initiated by the addition of 50 nM of TAMRA labelled peptide linked to ubiquitin via an iso-peptide bond as fluorescence polarisation substrate. Reactions were read immediately after addition of substrate and following a 2 hr incubation at room temperature. Readings were performed on a Pherastar Plus (BMG Labtech). λ Excitation 540 nm; λ Emission 590 nm.

T1 sequence (Q93009 whole entry): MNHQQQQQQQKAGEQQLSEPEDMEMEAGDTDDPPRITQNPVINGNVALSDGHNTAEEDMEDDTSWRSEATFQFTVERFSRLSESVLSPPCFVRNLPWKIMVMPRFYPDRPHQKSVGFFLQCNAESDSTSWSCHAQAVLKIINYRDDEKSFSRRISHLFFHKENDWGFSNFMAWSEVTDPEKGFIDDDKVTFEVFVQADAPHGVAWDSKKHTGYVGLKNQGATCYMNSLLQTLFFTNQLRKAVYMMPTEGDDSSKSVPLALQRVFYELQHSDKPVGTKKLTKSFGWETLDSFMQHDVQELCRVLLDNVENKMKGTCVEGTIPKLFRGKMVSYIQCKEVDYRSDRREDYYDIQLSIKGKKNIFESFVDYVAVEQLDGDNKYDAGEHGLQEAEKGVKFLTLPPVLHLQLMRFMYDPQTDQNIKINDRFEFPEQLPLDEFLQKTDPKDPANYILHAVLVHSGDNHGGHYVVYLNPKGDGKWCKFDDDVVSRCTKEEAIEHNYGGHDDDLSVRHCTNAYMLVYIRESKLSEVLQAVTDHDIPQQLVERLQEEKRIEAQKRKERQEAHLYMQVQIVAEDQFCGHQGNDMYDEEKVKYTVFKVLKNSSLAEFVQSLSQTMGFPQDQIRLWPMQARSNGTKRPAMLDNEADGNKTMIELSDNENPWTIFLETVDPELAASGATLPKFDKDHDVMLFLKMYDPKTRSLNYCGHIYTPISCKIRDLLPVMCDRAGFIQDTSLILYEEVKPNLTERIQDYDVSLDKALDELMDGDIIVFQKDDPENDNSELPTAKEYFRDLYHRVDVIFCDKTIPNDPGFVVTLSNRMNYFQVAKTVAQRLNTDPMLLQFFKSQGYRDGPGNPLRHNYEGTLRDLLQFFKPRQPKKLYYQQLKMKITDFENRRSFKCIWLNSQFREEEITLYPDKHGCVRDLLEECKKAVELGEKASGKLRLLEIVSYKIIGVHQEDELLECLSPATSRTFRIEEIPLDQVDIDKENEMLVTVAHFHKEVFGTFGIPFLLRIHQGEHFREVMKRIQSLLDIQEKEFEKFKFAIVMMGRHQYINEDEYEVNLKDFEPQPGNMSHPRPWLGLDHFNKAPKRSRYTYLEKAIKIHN

Compound | pIC50
CN1CCC[C@@H](C(=O)Nc2cc3c(c(-c4ccccc4)c2)CN(C#N)C3)C1 [Example 38, (R)—N-(2-cyano-7-phenylisoindolin-5-yl)-1-methylpiperidine-3-carboxamide] | > 6.00
Cn1nccc1C(=O)Nc1cc2c(c(-c3ccccc3)c1)CN(C#N)C2 [Example 39, N-(2-cyano-7-phenylisoindolin-5-yl)-1-methyl-1H-pyrazole-5-carboxamide] | 5.00 to 6.00
N#CN1Cc2cc(NC(=O)C3CN(Cc4ccccc4)CCO3)cc(-c3ccccc3)c2C1 (stereo not drawn) [Example 40, 4-benzyl-N-(2-cyano-7-phenylisoindolin-5-yl)morpholine-2-carboxamide] | 5.00 to 6.00
N#CN1Cc2cc(NC(=O)CCc3cccnc3)cc(-c3ccccc3)c2C1 [Example 41, N-(2-cyano-7-phenylisoindolin-5-yl)-3-(pyridin-3-yl)propanamide] | 5.00 to 6.00
N#CN1Cc2cc(NC(=O)C3CNC(=O)C3)cc(-c3ccccc3)c2C1 (stereo not drawn) [Example 42, N-(2-cyano-7-phenylisoindolin-5-yl)-5-oxopyrrolidine-3-carboxamide] | > 6.00
CN1CCC(C(=O)Nc2cc3c(c(-c4ccccc4)c2)CN(C#N)C3)C1 (stereo not drawn) [Example 43, N-(2-cyano-7-phenyl-isoindolin-5-yl)-1-methylpyrrolidine-3-carboxamide] | 4.00 to 4.52
CN1CC(C(=O)Nc2cc3c(c(-c4ccccc4)c2)CN(C#N)C3)CCC1=O (stereo not drawn) [Example 44, N-(2-cyano-7-phenylisoindolin-5-yl)-1-methyl-6-oxopiperidine-3-carboxamide] | > 6.00
CC(=O)N1CCCC(C(=O)Nc2cc3c(c(-c4ccccc4)c2)CN(C#N)C3)C1 (stereo not drawn) [Example 45, 1-acetyl-N-(2-cyano-7-phenylisoindolin-5-yl)piperidine-3-carboxamide] | 5.00 to 6.00
CN(C)C(=O)CCC(=O)Nc1cc2c(c(-c3ccccc3)c1)CN(C#N)C2 [Example 46, N1-(2-cyano-7-phenylisoindolin-5-yl)-N4,N4-dimethylsuccinamide] | 5.00 to 6.00
CC(=O)N1CCC(C(=O)Nc2cc3c(c(-c4ccccc4)c2)CN(C#N)C3)CC1 [Example 47, 1-acetyl-N-(2-cyano-7-phenylisoindolin-5-yl)piperidine-4-carboxamide] | > 6.00
CN1CCC(C(=O)Nc2cc3c(c(-c4ccccc4)c2)CN(C#N)C3)CC1 [Example 48, N-(2-cyano-7-phenylisoindolin-5-yl)-1-methylpiperidine-4-carboxamide] | > 6.00
CN(C)CC(=O)Nc1cc2c(c(-c3ccccc3)c1)CN(C#N)C2 [Example 49] | > 6.00
N#CN1Cc2cc(NC(=O)C3CCOCC3)cc(-c3ccccc3)c2C1 [Example 50, N-(2-cyano-7-phenylisoindolin-5-yl)tetrahydro-2H-pyran-4-carboxamide] | > 6.00
N#CN1Cc2cc(NC(=O)C3CCS(=O)(=O)CC3)cc(-c3ccccc3)c2C1 [Example 51, N-(2-cyano-7-phenylisoindoin-5-yl)tetrahydro-2H-thiopyran-4-carboxamide 1,1-dioxide] | 5.00 to 6.00
CN1CC(C(=O)Nc2cc3c(c(-c4ccccc4)c2)CN(C#N)C3)CC1=O (stereo not drawn) [Example 52, N-(2-cyano-7-phenylisoindolin-5-yl)-1-methyl-5-oxopyrrolidine-3-carboxamide] | > 6.00
CN1CCOC(C(=O)Nc2cc3c(c(-c4ccccc4)c2)CN(C#N)C3)C1 (stereo not drawn) [Example 53, N-(2-cyano-7-phenylisoindolin-5-yl)-4-methylmorpholine-2-carboxamide] | > 6.00
CCN1CCOC(C(=O)Nc2cc3c(c(-c4ccccc4)c2)CN(C#N)C3)C1 (stereo not drawn) [Example 54, N-(2-cyano-7-phenylisoindolin-5-yl)-4-ethylmorpholine-2-carboxamide] | > 6.00
CC(C)N1CCOC(C(=O)Nc2cc3c(c(-c4ccccc4)c2)CN(C#N)C3)C1 (stereo not drawn) [Example 55, N-(2-cyano-7-phenylisoindolin-5-yl)-4-isopropylmorpholine-2-carboxamide] | > 6.00
